Experimental data reported in PubChem BioAssay (NCI).
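Method: 48-hour compound exposure of cells in 96-well plates, five concentrations, linear interpolation of endpoints. TGI is the concentration that stops growth completely.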

Experiments:
Assay in all cases: NCI-60 cell line screen, 48 h
NCI-H460 lung = test system: NCI-H460 lung
RPMI-8226 leukemia = test system: RPMI-8226 leukemia
ACHN renal = test system: ACHN renal
SW-620 colon = test system: SW-620 colon
HCT-116 colon = test system: HCT-116 colon
UACC-257 melanoma = test system: UACC-257 melanoma
OVCAR-8 ovarian = test system: OVCAR-8 ovarian
IGROV1 ovarian = test system: IGROV1 ovarian
SNB-75 CNS = test system: SNB-75 CNS
M14 melanoma = test system: M14 melanoma
SNB-78 CNS = test system: SNB-78 CNS
OVCAR-5 ovarian = test system: OVCAR-5 ovarian
MOLT-4 leukemia = test system: MOLT-4 leukemia
XF 498 CNS = test system: XF 498 CNS
LOX IMVI melanoma = test system: LOX IMVI melanoma
M19-MEL melanoma = test system: M19-MEL melanoma
HL-60(TB) leukemia = test system: HL-60(TB) leukemia
KM20L2 colon = test system: KM20L2 colon
A549 NSCLC = test system: A549 NSCLC
OVCAR-4 ovarian = test system: OVCAR-4 ovarian
RXF 393 renal = test system: RXF 393 renal
SR leukemia = test system: SR leukemia
DMS 273 small cell lung = test system: DMS 273 small cell lung
786-0 renal = test system: 786-0 renal
U251 CNS = test system: U251 CNS
SF-539 CNS = test system: SF-539 CNS
NCI-H226 lung = test system: NCI-H226 lung
CAKI-1 renal = test system: CAKI-1 renal
SF-268 CNS = test system: SF-268 CNS
HCC-2998 colon = test system: HCC-2998 colon
CCRF-CEM leukemia = test system: CCRF-CEM leukemia
OVCAR-3 ovarian = test system: OVCAR-3 ovarian
SK-MEL-5 melanoma = test system: SK-MEL-5 melanoma
A498 renal = test system: A498 renal
K-562 leukemia = test system: K-562 leukemia
DLD-1 colon = test system: DLD-1 colon
SF-295 CNS = test system: SF-295 CNS
SK-MEL-2 melanoma = test system: SK-MEL-2 melanoma
HOP-92 NSCLC = test system: HOP-92 NSCLC
HOP-18 NSCLC = test system: HOP-18 NSCLC
NCI-H522 lung = test system: NCI-H522 lung
SK-MEL-28 melanoma = test system: SK-MEL-28 melanoma
MALME-3M melanoma = test system: MALME-3M melanoma
UACC-62 melanoma = test system: UACC-62 melanoma
TK-10 renal = test system: TK-10 renal
SN12C renal = test system: SN12C renal
NCI-H23 lung = test system: NCI-H23 lung
SK-OV-3 ovarian = test system: SK-OV-3 ovarian
KM12 colon = test system: KM12 colon
HOP-62 NSCLC = test system: HOP-62 NSCLC
SNB-19 CNS = test system: SNB-19 CNS
HCT-15 colon = test system: HCT-15 colon
LXFL 529 NSCLC = test system: LXFL 529 NSCLC
COLO 205 colon = test system: COLO 205 colon
HT29 colon = test system: HT29 colon
EKVX NSCLC = test system: EKVX NSCLC
UO-31 renal = test system: UO-31 renal
DMS 114 small cell lung = test system: DMS 114 small cell lung

## CCC1C(C(=O)Nc2ccccc2C)=C(C)NC(C)=C1c1ccccc1C (stereo not drawn)
NCI-H460 lung
  TGI: > 67.1 µM
RPMI-8226 leukemia
  TGI: 61.5 µM
ACHN renal
  TGI: > 100 µM
SW-620 colon
  TGI: > 59.9 µM
HCT-116 colon
  TGI: > 77.6 µM
UACC-257 melanoma
  TGI: > 100 µM
OVCAR-8 ovarian
  TGI: > 100 µM
IGROV1 ovarian
  TGI: > 100 µM
SNB-75 CNS
  TGI: > 100 µM
M14 melanoma
  TGI: > 100 µM
SNB-78 CNS
  TGI: > 100 µM
OVCAR-5 ovarian
  TGI: > 100 µM
MOLT-4 leukemia
  TGI: > 100 µM
XF 498 CNS
  TGI: > 100 µM
LOX IMVI melanoma
  TGI: > 100 µM
M19-MEL melanoma
  TGI: > 100 µM
HL-60(TB) leukemia
  TGI: 31.5 µM
KM20L2 colon
  TGI: > 100 µM
A549 NSCLC
  TGI: > 100 µM
OVCAR-4 ovarian
  TGI: > 100 µM
RXF 393 renal
  TGI: > 100 µM
SR leukemia
  TGI: > 76.7 µM
DMS 273 small cell lung
  TGI: > 83.2 µM
786-0 renal
  TGI: > 100 µM
U251 CNS
  TGI: > 100 µM
SF-539 CNS
  TGI: > 100 µM
NCI-H226 lung
  TGI: > 100 µM
CAKI-1 renal
  TGI: > 100 µM
SF-268 CNS
  TGI: > 61.1 µM
HCC-2998 colon
  TGI: > 100 µM
CCRF-CEM leukemia
  TGI: > 100 µM
OVCAR-3 ovarian
  TGI: > 100 µM
SK-MEL-5 melanoma
  TGI: > 100 µM
A498 renal
  TGI: > 100 µM
K-562 leukemia
  TGI: > 100 µM
DLD-1 colon
  TGI: > 59.7 µM
SF-295 CNS
  TGI: > 100 µM
SK-MEL-2 melanoma
  TGI: > 100 µM
HOP-92 NSCLC
  TGI: > 100 µM
HOP-18 NSCLC
  TGI: > 100 µM
NCI-H522 lung
  TGI: > 100 µM
SK-MEL-28 melanoma
  TGI: > 100 µM
MALME-3M melanoma
  TGI: > 100 µM
UACC-62 melanoma
  TGI: > 100 µM
TK-10 renal
  TGI: > 100 µM
SN12C renal
  TGI: > 100 µM
NCI-H23 lung
  TGI: > 100 µM
SK-OV-3 ovarian
  TGI: > 100 µM
KM12 colon
  TGI: > 100 µM
HOP-62 NSCLC
  TGI: > 100 µM
SNB-19 CNS
  TGI: > 100 µM
HCT-15 colon
  TGI: > 54.8 µM
LXFL 529 NSCLC
  TGI: > 100 µM
COLO 205 colon
  TGI: > 100 µM
HT29 colon
  TGI: > 100 µM
EKVX NSCLC
  TGI: > 100 µM
UO-31 renal
  TGI: > 100 µM

## CCN(CC)CC(C)C(=O)/C=C/c1ccc(C)cc1 (stereo not drawn)
NCI-H460 lung
  TGI: 17 µM
RPMI-8226 leukemia
  TGI: > 100 µM
ACHN renal
  TGI: 4.36 µM
SW-620 colon
  TGI: 2.96 µM
HCT-116 colon
  TGI: 3.16 µM
UACC-257 melanoma
  TGI: 4.1 µM
OVCAR-8 ovarian
  TGI: 11.3 µM
IGROV1 ovarian
  TGI: 4.86 µM
SNB-75 CNS
  TGI: 3.17 µM
M14 melanoma
  TGI: 4.85 µM
SNB-78 CNS
  TGI: 23.1 µM
OVCAR-5 ovarian
  TGI: 28 µM
MOLT-4 leukemia
  TGI: 7.07 µM
XF 498 CNS
  TGI: 2.98 µM
LOX IMVI melanoma
  TGI: 2.69 µM
M19-MEL melanoma
  TGI: 3.04 µM
HL-60(TB) leukemia
  TGI: 14.4 µM
KM20L2 colon
  TGI: 21.6 µM
A549 NSCLC
  TGI: 13.4 µM
OVCAR-4 ovarian
  TGI: 4.26 µM
RXF 393 renal
  TGI: 4.31 µM
SR leukemia
  TGI: 8.19 µM
DMS 273 small cell lung
  TGI: 5.96 µM
786-0 renal
  TGI: 3.65 µM
U251 CNS
  TGI: 3.43 µM
SF-539 CNS
  TGI: 3.85 µM
NCI-H226 lung
  TGI: 31.3 µM
CAKI-1 renal
  TGI: 2.49 µM
SF-268 CNS
  TGI: 4.51 µM
HCC-2998 colon
  TGI: 9.28 µM
CCRF-CEM leukemia
  TGI: 16.1 µM
OVCAR-3 ovarian
  TGI: 9.93 µM
SK-MEL-5 melanoma
  TGI: 17 µM
A498 renal
  TGI: 20.6 µM
K-562 leukemia
  TGI: > 100 µM
DLD-1 colon
  TGI: 3.16 µM
SF-295 CNS
  TGI: 28.6 µM
HOP-92 NSCLC
  TGI: 4.84 µM
HOP-18 NSCLC
  TGI: 22.3 µM
SK-MEL-28 melanoma
  TGI: 3.69 µM
MALME-3M melanoma
  TGI: 7.08 µM
UACC-62 melanoma
  TGI: 12.2 µM
TK-10 renal
  TGI: 3.69 µM
SN12C renal
  TGI: 3.02 µM
NCI-H23 lung
  TGI: 19.9 µM
SK-OV-3 ovarian
  TGI: 30.7 µM
KM12 colon
  TGI: 1.96 µM
HOP-62 NSCLC
  TGI: 33.5 µM
SNB-19 CNS
  TGI: 30.5 µM
HCT-15 colon
  TGI: 5.71 µM
DMS 114 small cell lung
  TGI: 3.2 µM
LXFL 529 NSCLC
  TGI: 3.23 µM
COLO 205 colon
  TGI: 3.02 µM
HT29 colon
  TGI: 3.31 µM
EKVX NSCLC
  TGI: 26.8 µM
UO-31 renal
  TGI: 26.4 µM
